The values below come from PubChem BioAssay AID1259407 (Chemical Carcinogenesis Research Information System (CCRIS), 2018).

This data set deals with CCRIS mutagenicity, Ames/micronucleus/aberration tests. Description: CCRIS mutagenicity studies.
[1] abbreviates: Test System: AMES SALMONELLA TYPHIMURIUM, Strain/Indicator: TA100, Metabolic Activation: NONE, Method: STANDARD PLATE.
Where [2] appears, read: Test System: AMES SALMONELLA TYPHIMURIUM, Strain/Indicator: TA100, Metabolic Activation: RAT, LIVER, S-9, AROCLOR 1254, Method: STANDARD PLATE.
The mark [3] stands for this setting: Test System: AMES SALMONELLA TYPHIMURIUM, Strain/Indicator: TA102, Metabolic Activation: NONE, Method: STANDARD PLATE.
Where [4] appears, read: Test System: AMES SALMONELLA TYPHIMURIUM, Strain/Indicator: TA102, Metabolic Activation: RAT, LIVER, S-9, AROCLOR 1254, Method: STANDARD PLATE.
Where [5] appears, read: Test System: AMES SALMONELLA TYPHIMURIUM, Strain/Indicator: TA98, Metabolic Activation: NONE, Method: STANDARD PLATE.

SMILES strings stand for the structures. Activity calls are given as the source filed them. No rule for the calls is given here.

Consider `CCCCN(N)CCCC`, for which the mutagenic call (Test System: AMES SALMONELLA TYPHIMURIUM, Strain/Indicator: TA100, Metabolic Activation: NONE, Method: PREINCUBATION (11 HR GROWTH PERIOD FOR BACTERIA)) was “active; positive”; the mutagenic call under setting [1] is “inactive; negative”; the mutagenic call under setting [2] is “inactive; negative”; the mutagenic call (Test System: AMES SALMONELLA TYPHIMURIUM, Strain/Indicator: TA100, Metabolic Activation: RAT, LIVER, S-9, PCB, Method: PREINCUBATION (11 HR GROWTH PERIOD FOR BACTERIA)) is “inactive; negative”; the mutagenic call (Test System: AMES SALMONELLA TYPHIMURIUM, Strain/Indicator: TA102, Metabolic Activation: NONE, Method: PREINCUBATION (5 HR GROWTH PERIOD FOR BACTERIA)) was “active; positive”; the mutagenic call (Test System: AMES SALMONELLA TYPHIMURIUM, Strain/Indicator: TA102, Metabolic Activation: NONE, Method: PREINCUBATION (7 HR GROWTH PERIOD FOR BACTERIA)) was “inactive; negative”. For the same compound, the mutagenic call is “inactive; negative” under setting [3]; “inactive; negative” under setting [4]; “inactive; negative” (Test System: AMES SALMONELLA TYPHIMURIUM, Strain/Indicator: TA102, Metabolic Activation: RAT, LIVER, S-9, PCB, Method: PREINCUBATION (5 OR 7 HR GROWTH PERIOD FOR BACTERIA)).
Turning to `CC1=CC[C@H]2C(C)=CC[C@@H](C(C)C)[C@@H]2C1`, the mutagenic call runs as follows: (End Point: IN VITRO CHROMOSOMAL ABERRATIONS, Test System: CHINESE HAMSTER OVARY CELLS, Metabolic Activation: NONE) “inactive; negative”; (End Point: IN VITRO CHROMOSOMAL ABERRATIONS, Test System: CHINESE HAMSTER OVARY CELLS, Metabolic Activation: RAT, LIVER, S-9, AROCLOR 1254) “inactive; negative”; (Test System: AMES SALMONELLA TYPHIMURIUM, Strain/Indicator: TA98, Metabolic Activation: HAMSTER, LIVER, S-9, AROCLOR 1254, Method: PREINCUBATION) “inactive; negative”; (Test System: AMES SALMONELLA TYPHIMURIUM, Strain/Indicator: TA98, Metabolic Activation: NONE, Method: PREINCUBATION) “inactive; negative”; (Test System: AMES SALMONELLA TYPHIMURIUM, Strain/Indicator: TA98, Metabolic Activation: RAT, LIVER, S-9, AROCLOR 1254, Method: PREINCUBATION) “inactive; negative”; (Test System: AMES SALMONELLA TYPHIMURIUM, Strain/Indicator: TA100, Metabolic Activation: HAMSTER, LIVER, S-9, AROCLOR 1254, Method: PREINCUBATION) “inactive; negative”. For the same compound, the mutagenic call is “inactive; negative” (Test System: AMES SALMONELLA TYPHIMURIUM, Strain/Indicator: TA100, Metabolic Activation: NONE, Method: PREINCUBATION); “inactive; negative” (Test System: AMES SALMONELLA TYPHIMURIUM, Strain/Indicator: TA100, Metabolic Activation: RAT, LIVER, S-9, AROCLOR 1254, Method: PREINCUBATION); “inactive; negative” (Test System: AMES SALMONELLA TYPHIMURIUM, Strain/Indicator: TA1535, Metabolic Activation: HAMSTER, LIVER, S-9, AROCLOR 1254, Method: PREINCUBATION); “inactive; negative” (Test System: AMES SALMONELLA TYPHIMURIUM, Strain/Indicator: TA1535, Metabolic Activation: NONE, Method: PREINCUBATION); “inactive; negative” (Test System: AMES SALMONELLA TYPHIMURIUM, Strain/Indicator: TA1535, Metabolic Activation: RAT, LIVER, S-9, AROCLOR 1254, Method: PREINCUBATION); “inactive; negative” (Test System: AMES SALMONELLA TYPHIMURIUM, Strain/Indicator: TA1537, Metabolic Activation: HAMSTER, LIVER, S-9, AROCLOR 1254, Method: PREINCUBATION). In addition, the mutagenic call (Test System: AMES SALMONELLA TYPHIMURIUM, Strain/Indicator: TA1537, Metabolic Activation: NONE, Method: PREINCUBATION) is “inactive; negative” and the mutagenic call (Test System: AMES SALMONELLA TYPHIMURIUM, Strain/Indicator: TA1537, Metabolic Activation: RAT, LIVER, S-9, AROCLOR 1254, Method: PREINCUBATION) is “inactive; negative”.
With `c1ccc2c(c1)ccc1nc3ccc4c(c3cc12)CCCC4`, the mutagenic call is “inactive; negative” (Test System: AMES SALMONELLA TYPHIMURIUM, Strain/Indicator: TA98, Metabolic Activation: GUINEA PIG, LIVER, S-9, 3-METHYLCHOLANTHRENE, Method: STANDARD PLATE) and “active; positive” (Test System: AMES SALMONELLA TYPHIMURIUM, Strain/Indicator: TA100, Metabolic Activation: GUINEA PIG, LIVER, S-9, 3-METHYLCHOLANTHRENE, Method: STANDARD PLATE).
With `CC[C@@H](C)[C@@H](N)C(=O)OC`, the mutagenic call (End Point: IN VIVO MICRONUCLEUS, Test System: BONE MARROW POLYCHROMATIC ERYTHROCYTES, Species: MOUSE, Strain/Sex: DDY/MALE, Route: IP) was “inactive; negative”.
Take `ClCC(Cl)CBr` (stereo not drawn): the mutagenic call was “active; positive” (Test System: AMES SALMONELLA TYPHIMURIUM, Strain/Indicator: TA100, Metabolic Activation: RAT, LIVER, MICROSOMES, PHENOBARBITAL, NADPH COFACTORS, Method: STANDARD PLATE) and “inactive; negative” (Test System: AMES SALMONELLA TYPHIMURIUM, Strain/Indicator: TA100, Metabolic Activation: RAT, LIVER, MICROSOMES, PHENOBARBITAL, Method: STANDARD PLATE).
Turning to `O=NN(c1ccc([N+](=O)[O-])cc1)C1OC[C@H](O)[C@H](O)[C@H]1O` (stereo partly drawn), the mutagenic call under setting [1] is “active; positive”.
For `O=c1ccn([C@@H]2O[C@H](COP(=O)(O)O)[C@@H](O)[C@H]2O)c(=O)[nH]1`, the mutagenic call by setting is: (Test System: AMES SALMONELLA TYPHIMURIUM, Strain/Indicator: TA97, Metabolic Activation: NONE, Method: PREINCUBATION) “inactive; negative”; (Test System: AMES SALMONELLA TYPHIMURIUM, Strain/Indicator: TA97, Metabolic Activation: RAT, LIVER, S-9, AROCLOR 1254, Method: PREINCUBATION) “inactive; negative”; (Test System: AMES SALMONELLA TYPHIMURIUM, Strain/Indicator: TA102, Metabolic Activation: NONE, Method: PREINCUBATION) “inactive; negative”; (Test System: AMES SALMONELLA TYPHIMURIUM, Strain/Indicator: TA102, Metabolic Activation: RAT, LIVER, S-9, AROCLOR 1254, Method: PREINCUBATION) “inactive; negative”.
On to `CCC(C)c1ccc(/C=C/c2ccc([N+](=O)[O-])cc2)cc1` (stereo not drawn), for which the mutagenic call by setting is: under setting [5], “active; positive”; (Test System: AMES SALMONELLA TYPHIMURIUM, Strain/Indicator: TA98, Metabolic Activation: RAT, LIVER, S-9, AROCLOR, Method: STANDARD PLATE) “active; positive”; under setting [1], “inactive; negative”; (Test System: AMES SALMONELLA TYPHIMURIUM, Strain/Indicator: TA100, Metabolic Activation: RAT, LIVER, S-9, AROCLOR, Method: STANDARD PLATE) “active; positive”.
For `O=C(Cl)CCl`, the mutagenic call is, setting by setting: (End Point: IN VITRO CHROMOSOMAL ABERRATIONS, Test System: CHINESE HAMSTER LUNG (CHL), Metabolic Activation: NONE) “inactive; negative”; (End Point: IN VITRO CHROMOSOMAL ABERRATIONS, Test System: CHINESE HAMSTER LUNG (CHL), Metabolic Activation: RAT, LIVER, S-9, KC-400) “inactive; negative”.
As to `NCCc1cnc[nH]1`, the mutagenic call (Test System: AMES SALMONELLA TYPHIMURIUM, Strain/Indicator: TA97, Metabolic Activation: NONE, Method: STANDARD PLATE) was “inactive; negative”; the mutagenic call (Test System: AMES SALMONELLA TYPHIMURIUM, Strain/Indicator: TA97, Metabolic Activation: RAT, LIVER, S-9, AROCLOR 1254, Method: STANDARD PLATE) is “inactive; negative”; the mutagenic call under setting [5] was “inactive; negative”; the mutagenic call (Test System: AMES SALMONELLA TYPHIMURIUM, Strain/Indicator: TA98, Metabolic Activation: RAT, LIVER, S-9, AROCLOR 1254, Method: STANDARD PLATE) is “inactive; negative”; the mutagenic call under setting [1] was “inactive; negative”; the mutagenic call under setting [2] was “inactive; negative”. Besides, the mutagenic call was “inactive; negative” under setting [3]; “inactive; negative” under setting [4]; “inactive; negative” (Test System: UDS RAT HEPATOCYTES, Strain/Indicator: THY INCORP, Metabolic Activation: NONE, Method: AUTORADIOGRAPHY).
